In the test the test system is Primary cultures of astrocytes. The experiment in a line: Activation of astrocytes (morphological change in primary astrocyte cultures). Type of test: cell-based, Fischer 344 rats. The following applies: 6 hours after start of treatment, serum-free medium, microscope 200× magnification, versus polygonal flat control cells (FIG. 1/7). Here is the method: 1) Activation of Astrocytes
Primary cultures of astrocytes were obtained from the cerebral cortical tissue of newborn Fischer 344 rats within 24 hours after birth. The brains were dissected out of the vault of the cranium under sterile conditions, the cortical tissue (cortex) was isolated, and the cells were dissociated through a narrow-mesh wire netting. The cells were put into cell culture bottles and cultivated in serum-containing DMEM solution (contained fetal calf serum and a penicillin/streptomycin mixture) until the cells were confluent. Oligodendrocytes and microglia were removed by washing with cold buffer solution. The confluent astrocytes were then detached from the base of the culture bottles with a trypsin solution and seeded in a density of 20 000 cells/cm2 in Petri dishes on coverslips and cultivated in serum-containing medium until the cells were again confluent. Two days after confluence, the medium was replaced by serum-free medium and, after 24 hours, the medium was replaced again, likewise by serum-free medium. Twenty-four hours after the second replacement of medium, salmeterol was added. Six hours after the treatment, the astrocytes were photographed under the microscope with 200× magnification to document the morphological changes (FIG. 1/7).

As for `OCc1cc(C(O)CNCCCCCCOCCCCc2ccccc2)ccc1O` (stereo not shown) [salmeterol], the “morphological changes of astrocytes (activation)” value was “activated, stellate and refractile astrocytes”.
